Data reported in patent US20240352121A1, “LAIR-1 AGONISTIC ANTIBODIES AND METHODS OF USE THEREOF” (NEXTCURE, INC., priority 2023, published 2024).

System: SHP-1
Assay: SHP-1 phosphorylation in primary patient AML blasts (Western blot)
Type: cell-based, human
Settings: collagen alone
Description: FIGS. 4A-4O show the collagen matrix is vital to LAIR-1 induced AML cell death. (FIGS. 4A-C). Flow cytometry quantification of primary live, dead, or apoptotic total blood leukocytes after ex vivo treatment with 10 μg/mL IgG isotype control (gray) or LAIR-1 mAb (red) in the presence (FIG. 4A) or absence (FIG. 4B) of exogenous collagen, or (FIG. 4C), CD451^Lo SSC^Lo blast cells in the presence of isotype control or LAIR-1 mAb. N=3 technical replicates. […] Each dot represents an individual donor. Red shading highlights surface expression >20000 arbitrary units. Blue shading highlights expression <20000 units. Line represents simple linear regression. […] N=4-7 donors. […] Mean pixel density from Western blotting normalized to isotype control condition and graphed relative to total SHP-1. N=3 technical replicates. […] FIGS. 4M and 4N) 4E-BP1 expression as measured by Lumit assay (FIG. 4M) or cleaved caspase-7 as measured by Western blot (FIG. 4N) of cells treated as shown in FIGS. 4I-4K. […] P values calculated by Student's t test. […]
For assessment of signaling in healthy cells, human monocytes were isolated from PBMCs from two donors using a StemCell monocyte isolation kit (StemCell, Vancouver, BC). […] Data were quantified using FIJI (NIH, MD).

collagen: plate-coated human Collagen I, LAIR-1 ligand, mimics an extracellular matrix [reference compound]
pSHP-1 relative to control: limited increase
